Test system: 460 barcoded cancer cell lines
Assay: PRISM pooled barcoded cancer cell line growth screen, 10-point dose-response, 5 days, AUC
Format: cell-based
Parameters: scale not given here
Text: Several small molecule inhibitors of distinct protein domains of EP300/CBP are available, though the majority target the histone acetyltransferase domain (HAT) or bromodomain (BRD)[5],[10],[21],[22]. […] We used these tools to investigate the relative contribution of the EP300/CBP BRD or HAT domain to tumor cell growth (Fig. 1a). To do so, we performed 10-point, dose-response growth assays using mixed pools of 460 barcoded cancer cell lines, over five days of treatment in vitro[33],[34]. Growth was measured using an area-under-the-curve (AUC) approach (Supplementary Table 1, Supplementary Fig. 1a). […] Given potential differences in compound penetration and solubility, and to compare the relative cell line and tumor-specific effects of these two compounds in assays performed non-simultaneously, we performed a median normalization of each dataset (Supplementary Table 2).

SMILES: CO[C@H]1CC[C@H](n2c([C@@H]3CCCC(=O)N3c3ccc(F)c(F)c3)nc3cc(-c4c(C)noc4C)ccc32)CC1 [CCS1477]
- AUC (MG63, Osteosarcoma): 1
- AUC (MHHNB11, Neuroblastoma): 0.7003
- AUC (MIAPACA2, Pancreatic Cancer): 0.9396
- AUC (MKN1, Gastric Cancer): 0.9606
- AUC (MKN7, Gastric Cancer): 0.7767
- AUC (MKN45, Gastric Cancer): 0.856
- AUC (MOLM13, AML): 0.3814
- AUC (MOLM16, AML): 0.9868
- AUC (MOLT3, T-acute leukemia): 0.9924
- AUC (MOLT16, T-acute leukemia): 0.8465
- AUC (MON, Rhabdoid): 0.6598
- AUC (NB1, Neuroblastoma): 0.5737
- AUC (NB4, AML): 1
- AUC (NCIH23, Lung Cancer): 0.9771
- AUC (NCIH28, Lung Cancer): 0.9928
- AUC (NCIH82, Lung Cancer): 0.997
- AUC (NCIH196, Lung Cancer): 0.842
- AUC (NCIH211, Lung Cancer): 0.8687
- AUC (NCIH226, Lung Cancer): 0.9874
- AUC (NCIH292, Lung Cancer): 0.9319
- AUC (NCIH322, Lung Cancer): 0.9929
- AUC (NCIH358, Lung Cancer): 1
- AUC (NCIH441, Lung Cancer): 0.7826
- AUC (NCIH460, Lung Cancer): 0.9935
- AUC (NCIH520, Lung Cancer): 0.9951
- AUC (NCIH524, Lung Cancer): 1
- AUC (NCIH596, Lung Cancer): 0.9011
- AUC (NCIH647, Lung Cancer): 0.8544
- AUC (NCIH650, Lung Cancer): 0.6419
- AUC (NCIH661, Lung Cancer): 1
- AUC (NCIH747, Colon/Colorectal Cancer): 0.9981
- AUC (NCIH841, Lung Cancer): 0.9721
- AUC (NCIH1048, Lung Cancer): 1
- AUC (NCIH1299, Lung Cancer): 0.9947
- AUC (NCIH1341, Lung Cancer): 0.9136
- AUC (NCIH1373, Lung Cancer): 0.9741
- AUC (NCIH1437, Lung Cancer): 0.9932
- AUC (NCIH1568, Lung Cancer): 0.9412
- AUC (NCIH1573, Lung Cancer): 1
- AUC (NCIH1581, Lung Cancer): 0.9081
- AUC (NCIH1648, Lung Cancer): 0.7802
- AUC (NCIH1792, Lung Cancer): 0.8352
- AUC (NCIH1793, Lung Cancer): 0.9609
- AUC (NCIH1838, Lung Cancer): 0.9639
- AUC (NCIH1930, Lung Cancer): 0.9338
- AUC (NCIH1944, Lung Cancer): 0.9624
- AUC (NCIH1975, Lung Cancer): 0.9927
- AUC (NCIH2004RT, Rhabdoid): 1
- AUC (NCIH2052, Lung Cancer): 0.9941
- AUC (NCIH2122, Lung Cancer): 0.9334
- AUC (NCIH2170, Lung Cancer): 0.8755
- AUC (NCIH2172, Lung Cancer): 0.8463
- AUC (NCIH2196, Lung Cancer): 0.8725
- AUC (NCIH2228, Lung Cancer): 1
- AUC (NCIH2347, Lung Cancer): 0.9989
- AUC (NCIH2444, Lung Cancer): 1
- AUC (NCO2, CML): 0.9122
- AUC (NIHOVCAR3, Ovarian Cancer): 0.9967
- AUC (NUDHL1, Lymphoma): 0.5218
- AUC (NUGC3, Gastric Cancer): 0.905
- AUC (OAW42, Ovarian Cancer): 0.9968
- AUC (OC314, Ovarian Cancer): 0.7634
- AUC (OC316, Ovarian Cancer): 0.664
- AUC (OCIAML2, AML): 0.5324
- AUC (OCIAML3, AML): 0.8075
- AUC (OCILY19, Lymphoma): 0.7248
- AUC (OCILY132, T-cell lymphoma): 0.9273
- AUC (OCIM1, AML): 0.8977
- AUC (OE19, Esophageal Cancer): 0.9508
- AUC (OE21, Esophageal Cancer): 0.9943
- AUC (ONCODG1, Ovarian Cancer): 0.9442
- AUC (ONS76, Medulloblastoma): 0.6602
- AUC (OSRC2, Kidney Cancer): 1
- AUC (OV56, Ovarian Cancer): 1
- AUC (OVCAR8, Ovarian Cancer): 0.8858
- AUC (OVISE, Ovarian Cancer): 0.9803
- AUC (OVK18, Ovarian Cancer): 0.5969
- AUC (OVKATE, Ovarian Cancer): 0.8791
- AUC (OVTOKO, Ovarian Cancer): 0.9328
- AUC (PANC0203, Pancreatic Cancer): 0.9609
- AUC (PANC0327, Pancreatic Cancer): 1
- AUC (PANC0403, Pancreatic Cancer): 0.9938
- AUC (PANC0504, Pancreatic Cancer): 0.8732
- AUC (PANC0813, Pancreatic Cancer): 1
- AUC (PATU8902, Pancreatic Cancer): 0.9744
- AUC (PC3, Prostate Cancer): 1
- AUC (PECAPJ15, Head and Neck Cancer): 0.9295
- AUC (PF382, T-acute leukemia): 0.7571
- AUC (PK1, Pancreatic Cancer): 0.9937
- AUC (PK59, Pancreatic Cancer): 1
- AUC (PSN1, Pancreatic Cancer): 0.7783
- AUC (RCM1, Colon/Colorectal Cancer): 0.9586
- AUC (RD, Rhabdomyosarcoma): 0.8954
- AUC (RDES, Ewing Sarcoma): 0.5629
- AUC (RERFLCAI, Lung Cancer): 0.937
- AUC (RERFLCKJ, Lung Cancer): 0.8827
- AUC (RH4, Rhabdomyosarcoma): 0.8163
- AUC (RH28, Rhabdomyosarcoma): 0.8877
- AUC (RH36, Rhabdomyosarcoma): 0.9558
- AUC (RHJT, Rhabdomyosarcoma): 0.8764
- AUC (RI1, B-cell Lymphoma): 0.7034
- AUC (RL952, Endometrial/Uterine Cancer): 0.9936
- AUC (RL, B-cell Lymphoma): 0.8905
- AUC (RPMI8402, T-acute leukemia): 0.8153
- AUC (RT4, Bladder Cancer): 0.9721
- AUC (RVH421, Melanoma): 0.975
- AUC (S117, Thyroid Sarcoma): 0.8697
- AUC (SAOS2, Osteosarcoma): 0.6766
- AUC (SCABER, Bladder Cancer): 0.9263
- AUC (SCC9, Head and Neck Cancer): 0.7896
- AUC (SCC25, Head and Neck Cancer): 0.9849
- AUC (SCLC21H, Lung Cancer): 0.8733
- AUC (SEM, B-cell Leukemia): 0.851
- AUC (SF539, Glioma): 0.9912
- AUC (SH4, Melanoma): 0.9252
- AUC (SH10TC, Gastric Cancer): 0.7637
- AUC (SHP77, Lung Cancer): 0.791
- AUC (SIMA, Neuroblastoma): 0.8003
- AUC (SJSA1, Osteosarcoma): 0.881
- AUC (SKES1, Ewing Sarcoma): 0.7015
- AUC (SKHEP1, Liver Cancer): 0.9726
- AUC (SKM1, AML): 0.6213
- AUC (SKMEL30, Melanoma): 0.7984
- AUC (SKMES1, Lung Cancer): 0.9581
- AUC (SKMM2, Myeloma): 0.9554
- AUC (SKNAS, Neuroblastoma): 0.9789
- AUC (SKNBE2, Neuroblastoma): 0.6208
- AUC (SKNDZ, Neuroblastoma): 0.8143
- AUC (SKNEP1, Ewing Sarcoma): 0.8025
- AUC (SKNMC, Ewing Sarcoma): 0.8546
- AUC (SKNO1, AML): 0.6432
- AUC (SKNSH, Neuroblastoma): 0.8336
- AUC (SKOV3, Ovarian Cancer): 0.9975
- AUC (SKUT1, Leiomyosarcoma): 0.8326
- AUC (SNU1, Gastric Cancer): 0.9131
- AUC (SNU46, Head and Neck Cancer): 0.9224
- AUC (SNU61, Colon/Colorectal Cancer): 0.9346
- AUC (SNU81, Colon/Colorectal Cancer): 1
- AUC (SNU182, Liver Cancer): 0.7735
- AUC (SNU201, Glioblastoma): 0.712
- AUC (SNU213, Pancreatic Cancer): 0.9853
- AUC (SNU216, Gastric Cancer): 0.9769
- AUC (SNU245, Bile Duct Cancer): 0.8366
- AUC (SNU407, Colon/Colorectal Cancer): 0.9923
- AUC (SNU423, Liver Cancer): 0.9162
- AUC (SNU449, Liver Cancer): 0.9509
- AUC (SNU466, Glioblastoma): 0.9993
- AUC (SNU478, Bile Duct Cancer): 0.6392
- AUC (SNU601, Gastric Cancer): 0.8941
- AUC (SNU668, Gastric Cancer): 0.9591
- AUC (SNU685, Endometrial/Uterine Cancer): 0.9601
- AUC (SNU719, Gastric Cancer): 0.914
- AUC (SNU869, Bile Duct Cancer): 0.9994
- AUC (SNU878, Liver Cancer): 0.7965
- AUC (SNU886, Liver Cancer): 1
- AUC (SNU1041, Head and Neck Cancer): 0.8828
- AUC (SNU1066, Head and Neck Cancer): 1
- AUC (SNU1076, Head and Neck Cancer): 0.8929
- AUC (SNU1077, Endometrial/Uterine Cancer): 0.9948
- AUC (SNU1079, Bile Duct Cancer): 0.994
- AUC (SNU1105, Glioblastoma): 0.9872
- AUC (SNU1196, Bile Duct Cancer): 0.8873
- AUC (SNU1214, Head and Neck Cancer): 0.7307
- AUC (SNUC2A, Colon/Colorectal Cancer): 0.8028
- AUC (SNUC4, Colon/Colorectal Cancer): 0.894
- AUC (SQ1, Lung Cancer): 0.8902
- AUC (SR786, Lymphoma): 0.7905
- AUC (STM9101, Rhabdoid): 0.9061
- AUC (SUDHL8, Lymphoma): 0.8983
- AUC (SW48, Colon/Colorectal Cancer): 1
- AUC (SW579, Thyroid Cancer): 0.9957
- AUC (SW620, Colon/Colorectal Cancer): 1
- AUC (SW780, Bladder Cancer): 0.8694
- AUC (SW837, Colon/Colorectal Cancer): 0.8996
- AUC (SW900, Lung Cancer): 0.9538
- AUC (SW948, Colon/Colorectal Cancer): 0.8065
- AUC (SW1088, Glioma): 0.9904
- AUC (SW1116, Colon/Colorectal Cancer): 0.8985
- AUC (SW1463, Colon/Colorectal Cancer): 0.8864
- AUC (SW1710, Bladder Cancer): 1
- AUC (T3M10, Lung Cancer): 0.9279
- AUC (T24, Bladder Cancer): 0.9961
- AUC (T47D, Breast Cancer): 0.8791
- AUC (TALL1, T-acute leukemia): 0.9864
- AUC (TC71, Ewing Sarcoma): 0.7599
- AUC (TC106, Ewing Sarcoma): 1
- AUC (TC205, Ewing Sarcoma): 0.7558
- AUC (TCCPAN2, Pancreatic Cancer): 0.9414
- AUC (TCCSUP, Bladder Cancer): 0.982
- AUC (TE1, Esophageal Cancer): 1
- AUC (TE4, Esophageal Cancer): 1
- AUC (TE6, Esophageal Cancer): 0.9744
- AUC (TE9, Esophageal Cancer): 0.9981
- AUC (TE10, Esophageal Cancer): 0.7792
- AUC (TE11, Esophageal Cancer): 0.9258
- AUC (TE15, Esophageal Cancer): 0.8586
- AUC (TE617T, Rhabdomyosarcoma): 0.9947
- AUC (TF1, AML): 0.6668
- AUC (TM87, Rhabdoid): 0.9581
- AUC (TOLEDO, Lymphoma): 0.9697
- AUC (TOV21G, Ovarian Cancer): 0.9924
- AUC (TT2609C02, Thyroid Cancer): 0.8798
- AUC (TT, Thyroid Cancer): 0.7695
- AUC (TTC442, Rhabdomyosarcoma): 0.8425
- AUC (TTC549, Rhabdoid): 0.9131
- AUC (TTC642, Rhabdoid): 0.7844
- AUC (TTC1240, Rhabdoid): 0.4497
- AUC (TYKNU, Ovarian Cancer): 0.8502
- AUC (U2OS, Osteosarcoma): 0.8623
- AUC (U266B1, Myeloma): 0.9866
- AUC (U937, AML): 0.7957
- AUC (UACC62, Melanoma): 0.8964
- AUC (UACC257, Melanoma): 0.9638
- AUC (UBLC1, Bladder Cancer): 0.695
- AUC (UMUC1, Bladder Cancer): 0.8319
- AUC (UW228, Medulloblastoma): 0.9704
- AUC (VMCUB1, Bladder Cancer): 0.7437
- AUC (VMRCRCW, Kidney Cancer): 0.9159
- AUC (VMRCRCZ, Kidney Cancer): 0.8277
- AUC (WM88, Melanoma): 0.9177
- AUC (WM793, Melanoma): 0.9978
- AUC (WM983B, Melanoma): 0.8412
- AUC (YAPC, Pancreatic Cancer): 1
- AUC (YD10B, Head and Neck Cancer): 0.8679
- AUC (YD15, Head and Neck Cancer): 0.7679
- AUC (YD38, Head and Neck Cancer): 0.6898
- AUC (YH13, Glioblastoma): 0.9673
